Measurements: publication PMC11052077, “Discovery of Dolutegravir Derivative against Liver Cancer via Inducing Autophagy and DNA Damage” (Molecules, 2024)

Tests used:
Huh7 cells = assay: CCK8 cell viability assay, Huh7; format: cell-based, human; conditions: Homo sapiens, Huh-7, 48 h
Method: (§1) This study aimed to assess the anti-proliferative activity of dolutegravir-1,2,3-triazole derivatives on hepatocellular carcinoma cell lines, Huh7 and hepG2. A comprehensive CCK8 assay was employed to evaluate the impact of these compounds on cell viability, with cells treated at a concentration of 20 μM for 48 h. HRM cells, a normal cell line, were included as a control for comparative analysis.
(§2) Human hepatocellular carcinoma cell lines Huh7 and hepG2 were obtained from ATCC (Manassas, VA, USA). Cells were cultured in DMEM or RPMI 1640 medium containing 10% FBS and 1% penicillin/streptomycin at 37 °C with a 5% CO2-humidified atmosphere.
(§3) CCK8 assay was used to measure cell viability. Cells with a density of 1 × 10^4 cells/well were seeded on 96-well plates. After adhesion, cells were treated with different diluted compounds or vehicle control DMSO and continued to be cultured for 48 h or 72 h, respectively. Then, CCK8 reagent was added for one hour incubation at 37 °C with 5% CO2. Absorbance was measured using a Microplate spectrophotometer (Thermo, Waltham, MA, USA) at 450 nm. The ratio of cell viability of control was taken as 100%. […] Then, IC50 of compounds were investigated using the prism statistical software 7.0.

hepG2 cells = assay: CCK8 cell viability assay, hepG2; format: cell-based, human; conditions: Homo sapiens
Method: as §1, §2, §3

in vitro = format: cell-based, human; conditions: human
Method: as §1, with “analysis. […]” for “analysis.”
as §3

[1] = dose 27 times greater than the clinical dose, preclinical study; cited from earlier work

IC50 (Huh7 cells; Huh7, CCK8, read-out: half maximal inhibitory concentration (IC50), Huh7): > 50 µM
IC50 (hepG2 cells; HepG2, 48 h, hepG2, CCK8, read-out: half maximal inhibitory concentration (IC50), hepG2): > 50 µM
SMILES: C[C@@H]1CCO[C@H]2Cn3cc(C(=O)NCc4ccc(F)cc4F)c(=O)c(O)c3C(=O)N12 [DTG, Dolutegravir]
viability at 20 µM (Huh7 cells; 20 μM, Huh7, CCK8, control taken as 100%): 96.9%
viability at 20 µM (hepG2 cells; 20 μM, 48 h, hepG2, CCK8, control taken as 100%): 82.6%
viability at 48 h, 20 µM (in vitro): 99.6%
fertility and teratogenic toxicity [1]: no obvious fertility toxicity or teratogenic toxicity
